Key:
human CD4+ T Lymphocytes = experiment: Induction of apoptosis in CD3/CD28 costimulated T lymphocytes, annexin V / propidium iodide FACS; type: cell-based; conditions: for induction of apoptosis: 5 μM added at day 0, CD3/CD28 costimulated T lymphocytes; for induction of apoptosis / induction of apoptosis compared with azathioprine or 6-mercaptopurine mediated induction: 3, 4 or 5 days, FIGS. 2-4; for induction of apoptosis compared with azathioprine or 6-mercaptopurine mediated induction: 5 μM; for apoptosis induction: FIGS. 5 and 6, at least three experimental data sets, primary T cells of different donors
Procedure: Human peripheral blood mononuclear cells (PBMC) from 4 buffycoats were isolated using Ficoll-Hypaque gradients. PBMC were further purified using CD4 monoclonal antibodies attached to immunomagnetic microbeads according to the protocol provided by the manufacturer (Miltenyi Biotec). […] Azathioprine, 6-Mercaptopurine, V1, V2, V3, V4 or V5 were added to the T cell cultures at day 0 at a final concentration of 5 μM. To determine induction of apoptosis in these T lymphocytes, cells were analyzed by FACS. For FACS analysis, apoptotic cells were detected by staining with annexin V and propidium iodide using the Annexin V FITC Apoptosis Detection Kit I (PharMingen). In brief, T cells were washed twice in PBS, and the pellet was resuspended in annexin V binding buffer (PharMingen) at a concentration of 10^6 cells per milliliter. Annexin V FITC and propidium iodide were added (5 μl of each per 10^5 cells), Samples were gently mixed and incubated for 15 minutes at room temperature in the dark before FACS analysis.
• Annexin-positive, propidium iodide-negative cells (black bars) present the rate of early apoptotic cells. Annexin-positive, propidium iodide-positive cells (white bars) present late apoptotic or necrotic cells. • Induction of apoptosis=(Rate of apoptotic cells after indicated treatment)−(Rate of apoptosis of untreated cells) • V1, V2 and V3 were tested in 4 independent experiments. V4 and V5 were tested in 2 independent experiments.

Solubility in water = type: physicochemical
caspase-3/7 in T cells = experiment: Caspase-Glo 3/7 Assay in stimulated CD4+ T cells; type: cell-based, human; conditions: day three of culture; untreated cells = 100%; three experiments; FIG. 8
Procedure: FIG. 8: Caspase-graph: Luminescence value of untreated cells was defined as 100% Caspase activity. Due to their specific luminescence value the caspase activity of treated cells were calculated accordingly. Induction of Caspase activityx[%]=Caspase activityx[%]−Caspase activityuntreated[%]. Means±SEM (Standart Error of the Mean=Standard deviation/radical(n)) of three different experiments are presented.
In addition, an alternative method was performed for screening of group-D derivatives (FIG. 8). It was decided to analyse the activity of caspase-3/7 in T cells, which were treated with group-D derivatives. As compared to AnnexinV/PI staining this new method might have some advantages: • It is an easier protocol. Therefore there are fewer possibilities for individual errors. • Increased activity of caspase-3 is very specific for apoptosis. Therefore this method is very sensitive for the detection of apoptosis. There is no interfering influence of necrotic cells. • The measurement is done in duplicate. In this way there is an internal control.
The Caspase-Glo 3/7 Assay (Promega™) was used. This assay is based on a caspase dependent luminescent signal. Protocol: CD4^+ T cells were isolated from human blood by magnetic beads (Dynal). T lymphocytes were stimulated in complete RPMI-1640 medium (RPMI-1640+10% FCS+100 U/ml Penicillin/Streptomycin+3 mM L-Glutamin) for 3 days with coated antibodies to CD3 (0.04 μg/ml) and soluble CD28 antibodies (PharMingen™; 1 μg/ml) plus IL-2 (R & D Systems™, Wiesbaden, Germany; 40 U/ml) in 96-well plates. Cells were treated with different group-D derivatives or were left untreated. At day three of culture Caspase-3/7 Assay was performed. 25 μl of Caspase-Glo 3/7 reagent was added to each well. Probes were mixed gently for 2 minutes and incubated at room temperature for 30 minutes. Finally 100 μl of each probe were transferred to a white walled 96-well luminometer plate and analysed in a plate-reading luminometer. The added reagent contains a specific substrate of caspase-3 and caspase-7. Cleavage of this substrate by activated caspase-3 results in luciferase reaction. Luminescence is proportional to the amount of caspase activity present (FIG. 8)

Rac1 = Rac1 (Homo sapiens, UniProt P63000); conditions: cited from earlier work

Compound | induction of apoptosis (human CD4+ T Lymphocytes) | induction of caspase activity (caspase-3/7 in T cells) | further results
TAMRA-EDA-6-Thio-GTP [V5] | able to induce apoptosis | – | induction of apoptosis compared with azathioprine or 6-mercaptopurine mediated induction (human CD4+ T Lymphocytes): more pronounced and appeared earlier
CC(=O)OC[C@H]1O[C@@H](n2cnc3c(S)nc(NCCCCCCNC(C)=S)nc32)C(OC(C)=O)C1OC(C)=O (some centres unmarked) [V4, 2′,3′,5′-Triacetyl-N-2-(6″-thioacetamide-hexyl)-6-Thioguanosine] | not able to induce apoptosis | – | solubility in water (Solubility in water): not soluble in water
Aspartate-2,3′-EDA-6-Thio-GTP [05B-1] | – | less effective than 05B-0 | –
Cn1ccc(NC(=O)[C@@H]2OC3C(COP(=O)(O)OP(=O)(O)OP(=O)(O)O)OC(n4cnc5c(=S)[nH]c(N)nc54)C3O2)n1 (some centres unmarked) [06D-13] | – | promising | –
NCCCCCCNc1nc2c(ncn2[C@@H]2O[C@H](CO)[C@@H](O)[C@H]2O)c(=O)[nH]1 [V2, N-2-(6″-Aminohexyl)-guanosine] | not able to induce apoptosis | – | –
Cc1cc(CNC(=O)[C@@H]2OC3C(COP(=O)(O)OP(=O)(O)OP(=O)(O)O)OC(n4cnc5c(=S)[nH]c(N)nc54)C3O2)nn1C (some centres unmarked) [06D-14] | – | promising | –
2′,3′-EDA-6-Thio-GTP [05B-0] | able to induce apoptosis | very effective | induction of apoptosis compared with azathioprine or 6-mercaptopurine mediated induction (human CD4+ T Lymphocytes): more pronounced and appeared earlier; apoptosis induction (human CD4+ T Lymphocytes): strongest candidate drug for apoptosis induction
CC(=O)NCCCCCCNc1nc(O)c2ncn([C@@H]3O[C@H](COC(C)=O)C(OC(C)=O)C3OC(C)=O)c2n1 (some centres unmarked) [V3, 2′,3′,5′,o-Triacetyl-N-2-(Acetyl-6″-aminohexyl)-guanosine] | not able to induce apoptosis | – | solubility in water (Solubility in water): not soluble in water
Nc1nc2c(ncn2[C@@H]2O[C@H](COP(=O)(O)OP(=O)(O)OP(=O)(O)O)[C@@H](O)[C@H]2O)c(=S)[nH]1 [6-Thio-GTP, 6-thioguanosine triphosphate] | – | able to induce caspase activity | apoptosis induction (human CD4+ T Lymphocytes): on average was not able to induce apoptosis; affinity to Rac1, fold less in comparison with GTP (Rac1): 20 fold

Source: patent publication US8114986B2, “Analogous compounds of 6-thioguanosine triphosphate, their use in medical fields and processes for their preparation” (Giuliani International Limited, priority 2005, dated 2012)
